Assay results reported in article PMC7997635 (Journal of medicinal chemistry, 2021).
Converted amounts (≈) assume the structure as drawn.

Columns and labels:
[1] = HepG2 in vitro cytotoxicity; assay type: cell-based; conditions: human, HepG2 cells
[2] = Kinetic solubility in pH 2.0 and pH 6.5 buffers; assay type: physicochemical
[3] = test system: P. falciparum Dd2; assay: SYBR Green parasite growth inhibition assay, 72 h; assay type: cell-based, Plasmodium falciparum
[4] = test system: P. berghei liver stage (Pb-Luc sporozoites in HepG2-A16-CD81EGFP cells); assay: P. berghei liver stage assay; assay type: cell-based, Plasmodium berghei; conditions: for EC50: read-out: Pb liver stage EC50, two independent replicates
[5] = test system: HepG2; assay: HepG2tox assay run with the liver stage assay; assay type: cell-based, human; conditions: read-out: HepG2 CC50 (life cycle profiling); two independent replicates
[6] = HepG2tox assay run with the liver stage assay; assay type: cell-based, human; conditions: human, HepG2 cells, HepG2 CC50 (life cycle profiling), two independent replicates
[7] = test system: conversion of hematin (Fe(III)PPIX) to β-hematin; assay type: biochemical; conditions: pH 4.8 acetate, NP-40, 37 °C, 5 h; for IC50: read-out: IC50 for inhibition of βH formation
[8] = Solubility in NP-40/DMSO buffer of the heme biomineralization assay; assay type: physicochemical
[9] = test system: PfNF54 parasites; assay: Parasite survival concentration response; assay type: cell-based; conditions: Plasmodium falciparum, read-out: EC50 (survival), parasite survival
[10] = test system: P. falciparum; conditions: previously characterized with the standard PRR assay ref 34; cited from earlier work
[11] = test system: Hz formation in NF54 parasites; assay: Cellular heme fractionation assay; assay type: cell-based; conditions: Plasmodium falciparum, NF54, 32 h, read-out: EC50 (heme), drug concentration giving 50% response of 'free' heme Fe
[12] = test system: male stage V gametocytes; assay: Dual gamete formation assay; assay type: cell-based; conditions: Plasmodium falciparum, read-out: DGFA male gametocytes inhibition
[13] = test system: P. falciparum NF54-luc; assay: Bioluminescence relative rate of kill; assay type: cell-based, Plasmodium falciparum; conditions: 6 h exposure, 30× to […] EC50, compared with benchmarks
[14] = test system: P. falciparum 3D7; assay: 48 h 3H-hypoxanthine incorporation assay; assay type: cell-based; conditions: Plasmodium falciparum, 3D7, 48 h, read-out: EC50, 48 h hypoxanthine assay
[15] = test system: P. falciparum 3D7; assay: SYBR Green parasite growth inhibition assay, 72 h; assay type: cell-based; conditions: Plasmodium falciparum, 3D7, 72 h, read-out: P. falciparum EC50 Pf3D7, 72 h SYBR Green assay, ABS parasites; mean ± std dev (n) or individual replicates
[16] = test system: P. falciparum 3D7; assay: Two-color flow cytometry kill rate assay; assay type: cell-based, Plasmodium falciparum; conditions: 10× EC50, 24 or 48 h
[17] = test system: P. falciparum; assay: PRR drug washout kill rate assay; assay type: cell-based, Plasmodium falciparum; conditions: 10× EC50, 24 or 48 h
[18] = phosphate buffered saline pH 6.5, pH 6.5

With `CCCN(C(c1cncnc1)c1nnnn1-c1ccccc1C)C1(c2cccc(C(F)(F)F)c2)CC1` (stereo not drawn) [Compound 20, N-Propyl-N-(pyrimidin-5-yl(1-(o-tolyl)-1H-tetrazol-5-yl)methyl)-1-(3-(trifluoromethyl)phenyl)cyclopropan-1-amine] the selectivity ratio at 72 h [1] was 40 to 50.
`COc1ccc(C(F)(F)F)cc1CN(C1CC1)C(c1cccnc1)c1nnnn1-c1ccccc1C` (stereo not drawn) [Compound 7, N-(2-methoxy-5-(trifluoromethyl)benzyl)-N-(pyridin-3-yl(1-(o-tolyl)-1H-tetrazol-5-yl)methyl)cyclopropanamine] showed a solubility kinetic ([2]; pH 2.0 buffer, pH 2) of 12.5 to 25 µg/mL (≈ 25.3 to 50.6 µM) and a solubility kinetic [2, 18] of 1.6 to 3.1 µg/mL (≈ 3.24 to 6.27 µM).
For `Cc1ccccc1N(C)C(=O)C(c1cccnc1)N(Cc1cccc(OC(F)(F)F)c1)C1CC1` (stereo not drawn) [Compound 26, 2-(Cyclopropyl(3-(trifluoromethoxy)benzyl)amino)-N-methyl-2-(pyridin-3-yl)-N-(o-tolyl)acetamide], the “Fold Diff in EC50, Dd2 relative to 3D7” value [3] was 3–5 fold.
Compound `Cc1ccccc1-n1nnnc1C(c1cccnc1)N(Cc1cccc(C(F)(F)F)c1)C1CC1` (stereo not drawn) [Compound 9, N-(Pyridin-3-yl(1-(o-tolyl)-1H-tetrazol-5-yl)methyl)-N-(3-(trifluoromethyl)benzyl) cyclopropanamine] has an EC50 [4] of 12 µM, a CC50 [5] of over 17 µM and a CC50 [6] of 19 µM. The “inhibition of βH formation (in words)” value [7] was “inhibited βH formation with the same potency as MFQ”, the solubility [8] was at least 2000 µM and the solubility kinetic ([2]; pH 2.0 buffer, pH 2) was 12 to 23 µg/mL (≈ 25.8 to 49.5 µM). It also gave a solubility kinetic [2, 18] of 1.5 to 2.9 µg/mL (≈ 3.23 to 6.24 µM).
In the case of `CCN(CC)CCCC(C)Nc1ccnc2cc(Cl)ccc12` (stereo not drawn) [CQ, chloroquine], the EC50 [9] is given as 0.015 µM, the “rate of kill class of benchmark compound” value [10] is given as “fast-kill” and the EC50 [11] is given as 0.058 µM.
Work on `Cc1ccccc1N(C)C(=O)C(c1cccnc1)N(Cc1cccc(C(F)(F)F)c1)C1CC1` (stereo not drawn) [Compound 22, 2-(Cyclopropyl(3-(trifluoromethyl)benzyl)amino)-N-methyl-2-(pyridin-3-yl)-N-(o-tolyl)acetamide] yielded a solubility kinetic [2, 18] of 6.3 to 12.5 µg/mL (≈ 13.9 to 27.6 µM).
In the case of `Cc1ccccc1N(C)C(=O)C(c1cccnc1)N(Cc1cc(C(F)(F)F)ccc1F)C1CC1` (stereo not drawn) [Compound 32, 2-(Cyclopropyl(2-fluoro-5-(trifluoromethyl)benzyl)amino)-N-methyl-2-(pyridin-3-yl)-N-(o-tolyl)acetamide], the “Pb liver stage EC50 relative to P. falciparum blood stage EC50” value ([4]; fold higher) is reported as 20 to 30 fold, the EC50 [4] is reported as 16 µM and the CC50 [6] is reported as 24 µM. It also gave a solubility kinetic [2, 18] of 1.5 to 2.9 µg/mL (≈ 3.18 to 6.15 µM) and an inhibition at 25 µM [12] of about 60%.
With `CCN(CC)Cc1cc(Nc2ccnc3cc(Cl)ccc23)ccc1O` [amodiaquine, reference compound] the IC50 [7] was at most 100 µM.
With `COc1ccc2nc3cc(Cl)ccc3c(Nc3cc(CN4CCCC4)c(O)c(CN4CCCC4)c3)c2n1` [pyronaridine, reference compound] the IC50 [7] was at most 100 µM.
`O[C@@H](c1cc(C(F)(F)F)nc2c(C(F)(F)F)cccc12)[C@H]1CCCCN1` (racemic) [MFQ, mefloquine, reference compound] showed an IC50 [7] of at most 100 µM.
For `Cc1ccccc1N(C)C(=O)C(c1cncnc1)N(Cc1cccc(C(F)(F)F)c1)C1CC1` (stereo not drawn) [Compound 23, 2-(Cyclopropyl(3-(trifluoromethyl)benzyl)amino)-N-methyl-2-(pyrimidin-5-yl)-N-(o-tolyl)acetamide], the “rate of kill profile in BRRoK assay” value [13] was “fast kill kinetics” and the solubility kinetic ([2]; pH 2.0 buffer, pH 2) was 11 to 23 µg/mL (≈ 24.2 to 50.6 µM).
In the case of `Cc1ccccc1N(C)C(=O)C(c1cncnc1)N(Cc1cccc(OC(F)(F)F)c1)C1CC1` (stereo not drawn) [Compound 27, 2-(Cyclopropyl(3-(trifluoromethoxy)benzyl)amino)-N-methyl-2-(pyrimidin-5-yl)-N-(o-tolyl)acetamide], the “Fold Diff in EC50, Dd2 relative to 3D7” value [3] is reported as 1.4 – 3.0 fold.
For `C[C@@H]1CC[C@H]2[C@@H](C)C(=O)O[C@@H]3O[C@@]4(C)CC[C@@H]1[C@]32OO4` [ART, artemisinin], the “rate of kill class of benchmark compound” value [10] is given as “fast-kill”.
For `CCC(C(=O)Nc1cccc(Cl)c1)N1C(=O)C(C)N=C(c2ccccc2)c2ccccc21` (stereo not drawn) [Compound 1, N-(3-Chlorophenyl)-2-(3-methyl-2-oxo-5-phenyl-2,3-dihydro-1H-benzo[e][1,4]diazepin-1-yl)butanamide], the “rate of kill profile in BRRoK assay” value [13] was “slow kill kinetics”.
`CCc1nc(N)nc(N)c1-c1ccc(Cl)cc1` [PYR, pyrimethamine] showed an EC50 [9] of 0.033 µM, an EC50 [14] of 0.094 µM and an EC50 [11] of over 0.1 µM.
In the case of `Cc1ccccc1-n1nnnc1C(c1cncnc1)N(Cc1cccc(C(F)(F)F)c1)C1CC1` (stereo not drawn) [Compound 10, N-(Pyrimidin-5-yl(1-(o-tolyl)-1H-tetrazol-5-yl)methyl)-N-(3-(trifluoromethyl)benzyl)cyclopropanamine], the “rate of kill profile in BRRoK assay” value [13] is reported as “fast kill kinetics”, the “inhibition of βH formation (in words)” value [7] is reported as “weaker inhibition” and the CC50 at 72 h [1] is reported as over 30 µM. The EC50 [15] was 0.32 µM, the solubility [8] was at least 2000 µM and the “kill kinetics in two-color FACS assay” value [16] was “kill kinetics similar to CQ, though slower than ART”. For the same compound, the solubility kinetic ([2]; pH 2.0 buffer, pH 2) was 1.5 to 2.9 µg/mL (≈ 3.22 to 6.23 µM), the solubility kinetic [2, 18] was 1.5 to 2.9 µg/mL (≈ 3.22 to 6.23 µM) and the EC50 [11] was 1.04 µM. For the same compound, the “kill kinetics in PRR washout assay” value [17] was “kill kinetics similar to CQ, though slower than ART”.
In the case of `Cc1cc(Nc2ccc(S(F)(F)(F)(F)F)cc2)n2nc(C(C)(F)F)nc2n1` [DSM265], the “rate of kill class of benchmark compound” value [10] is listed as “slow-kill”.
In the case of `CCCN(C(c1cccnc1)c1nnnn1-c1ccccc1C)C1(c2cccc(C(F)(F)F)c2)CC1` (stereo not drawn) [Compound 21, N-Propyl-N-(pyridin-3-yl(1-(o-tolyl)-1H-tetrazol-5-yl)methyl)-1-(3-(trifluoromethyl)phenyl)cyclopropan-1-amine], the selectivity ratio at 72 h [1] is reported as 40 to 50 and the EC50 [15] is reported as about 0.3 µM.
`COc1ccc(C(F)(F)F)cc1CN(C)C(c1cccnc1)c1nnnn1-c1ccccc1C` (stereo not drawn) [Compound 6, N-(2-methoxy-5-(trifluoromethyl)benzyl)-N-methyl-1-(pyridin-3-yl)-1-(1-(o-tolyl)-1H-tetrazol-5-yl)methenamine] showed an EC50 [15] of about 1 µM.
In the case of `CC(=O)c1ccc(NC(=O)c2ccc(NC(=O)C3COc4ccccc4O3)cc2)cc1` (stereo not drawn) [Compound 2, N-(4-((4-Acetylphenyl)carbamoyl)phenyl)-2,3-dihydrobenzo[b][1,4]dioxine-2-carboxamide], the “rate of kill profile in BRRoK assay” value [13] is reported as “slow kill kinetics”.
For `O=C1C(O)=C([C@H]2CC[C@H](c3ccc(Cl)cc3)CC2)C(=O)c2ccccc21` [ATQ, atovaquone], the “rate of kill class of benchmark compound” value [10] is given as “slow-kill”.
With `COc1ccc(Br)cc1CN(C)C(c1ccccc1)c1nnnn1-c1ccccc1C` (racemic) [Compound 3, N-(5-bromo-2-methoxybenzyl)-N-methyl-1-phenyl-1-(1-(o-tolyl)-1H-tetrazol-5-yl)methenamine] the “rate of kill profile in BRRoK assay” value [13] was “fast kill mechanism”, the “inhibition of βH formation (in words)” value [7] was “nearly inactive” and the solubility [8] was at least 2000 µM.
Work on `O=C(C(c1cccnc1)N(Cc1cccc(C(F)(F)F)c1)C1CC1)N1CCCCC1` (stereo not drawn) [Compound 34, 2-(Cyclopropyl(3-(trifluoromethyl)benzyl)amino)-1-(piperidin-1-yl)-2-(pyridin-3-yl)ethan-1-one] yielded a solubility kinetic [2, 18] of 25 to 50 µg/mL (≈ 59.9 to 120 µM).
